Measured values from patent publication US20260256751A1, “COMBINATION OF BETA-2-ADRENERGIC RECEPTOR AGONISTS AND GLP-1 RECEPTOR AGONISTS FOR USE IN TREATING HYPERGLYCAEMIA” (ATROGI AB, priority 2023, published 2026).

Tests used:
[1] = system: differentiated L6-myotubes; experiment: cAMP production relative to isoprenaline (Biological example 2 of WO 2019/053427); format: cell-based; conditions: 0.25 h, compound at 10 μM, activity relative to isoproterenol at 10 μM
From the text: For example, the level of cAMP production induced by a given compound can be determined by reference to the amount induced by a defined concentration of that compound relative to that induced by the same concentration of a reference compound, such as isoprenaline, using techniques known to those skilled in the art (e.g. following the protocol as described in the biological examples provided in WO 2019/053427, i.e. in cells, such as differentiated L6-myotubes, having been stimulated with isoprenaline or the compound with a final concentration of 1×10^−5 M, for 15 min in stimulation buffer, such as HBSS supplemented with 1% BSA, 5 mM HEPES and 1 mM IBMX, at pH 7.4).
(§1) Compounds described in publications referenced and incorporated herein were screened in accordance with the procedures outlined in Biological example 1 and Biological example 2 of WO 2019/053427.

[2] = system: differentiated L6-myotubes; experiment: Glucose uptake screen (Biological example 1 of WO 2019/053427); format: cell-based; conditions: compound at 10 μM, activity relative to isoproterenol at 10 μM, read-out: Biological example 1 of WO 2019/053427 (GU)
Procedure: as §1
L6-myoblasts were grown in Dulbecco's Modified Eagle's Medium (DMEM) containing 1 g/L glucose supplemented with 10% fetal bovine serum (FBS), 2 mM L-glutamine, 50 U/mL penicillin, […] streptomycin and 10 mM HEPES. Cells were plated at 1x 10^5 cells per mL in 24-well plates. After reaching 90% confluence the cells were grown in medium containing 2% FBS for 7 days where upon cells differentiated into myotubes. The differentiated L6-myotubes were serum-starved overnight in medium containing 0.5% fatty-acid free BSA and stimulated with Compound A at a final concentration of 1×10^−5 M in the presence of the selective β2-adrenergic receptor antagonist ICI-118551. After 1 h 40 min the cells were washed with warm, glucose free medium twice and another portion of agonist was added to the glucose free medium. After another 20 min of incubation the cells were exposed to 50 nM ^3H-2-deoxyglucose for 10 min before washed in ice cold glucose free medium three times and lysed in 400 µl/well 0.2 M NaOH for 1 h at 60° C. The cell lysate was mixed with 4 ml scintillation buffer (Emulsifier Safe, Perkin Elmer) and the radioactivity was detected in a P-counter (Tri-Carb 4810TR, Perkin Elmer).

| SMILES | Emax at 10 µM [1] | Emax at 10 µM [2] |
| --- | --- | --- |
| Oc1ccc(C(O)CNCCCC2CC2)cc1 (centres unmarked) [Compound 30, 2-(3-cyclopropylpropylamino)-1-(p-hydroxyphenyl)-1-ethanol] | < 25% | > 75% |
| CCCCNCC(O)c1cc(Cl)c(N)c(C(F)(F)F)c1 (centres unmarked) [Compound 32, 1-[4-amino-3-chloro-5-(trifluoromethyl)phenyl]-2-(butylamino)-1-ethanol] | 25 to 50% | > 75% |
| CCCC(C)NCC(O)c1cc(Cl)c(N)c(C(F)(F)F)c1 (centres unmarked) [Compound 33, 1-[4-amino-3-chloro-5-(trifluoromethyl)phenyl]-2-(1-methylbutylamino)-1-ethanol] | > 75% | 50 to 75% |
| CCCCNCC(O)c1ccc(Cl)c(O)c1 (centres unmarked) [Compound 34, 2-(butylamino)-1-(4-chloro-3-hydroxyphenyl)-1-ethanol] | < 25% | > 75% |
| CCCC(C)NCC(O)c1ccc(Cl)c(O)c1 (centres unmarked) [Compound 35, 1-(4-chloro-3-hydroxyphenyl)-2-(1-methylbutylamino)-1-ethanol] | < 25% | > 75% |
| CCCCNCC(O)c1ccc(Cl)c(N)c1 (centres unmarked) [Compound 36, 1-(3-amino-4-chlorophenyl)-2-(butylamino)-1-ethanol] | < 25% | 25 to 50% |
| CCCCNCC(O)c1cc(F)c(N)c(F)c1 (centres unmarked) [Compound 37, 1-(4-amino-3,5-difluorophenyl)-2-(butylamino)-1-ethanol] | > 75% | > 75% |
| CCCCNCC(O)c1ccc(F)c(NC(C)=O)c1F (centres unmarked) [Compound 42, N-{3-[2-(butylamino)-1-hydroxyethyl]-2,6-difluorophenyl}acetamide] | < 25% | 25 to 50% |
| CCCCNCC(O)c1ccc(F)c(N)c1F (centres unmarked) [Compound 43, 1-(3-amino-2,4-difluorophenyl)-2-(butylamino)-1-ethanol] | < 25% | > 75% |
| CCCCNCC(O)c1ccc(F)c(N)c1 (centres unmarked) [Compound 44, 1-(3-amino-4-fluorophenyl)-2-(butylamino)-1-ethanol] | < 25% | 50 to 75% |
| CCC[C@@H]1CCC[C@H]([C@H](O)c2cccc(O)c2)N1 [Compound 45, (R)-[(2R,6R)-6-propyl-2-piperidyl](m-hydroxyphenyl)methanol] | < 25% | > 75% |
| CCCCNC[C@H](O)c1ccc(F)cc1 [Compound 46, (R)-2-(butylamino)-1-(p-fluorophenyl)-1-ethanol] | < 25% | 50 to 75% |
| CCCCNC[C@H](O)c1cccc(F)c1 [Compound 47, (R)-2-(butylamino)-1-(m-fluorophenyl)-1-ethanol] | < 25% | 50 to 75% |
| CCCCNCC(O)c1ccncc1 (centres unmarked) [Compound 48, 2-(butylamino)-1-(4-pyridyl)-1-ethanol] | < 25% | 25 to 50% |
| CCCCNCC(O)c1cccnc1 (centres unmarked) [Compound 49, 2-(butylamino)-1-(3-pyridyl)-1-ethanol] | < 25% | 50 to 75% |
| CCC[C@@H](C)NC[C@H](O)c1cccc(F)c1 [Compound 50, (R)-2-[(R)-1-methylbutylamino]-1-(m-fluorophenyl)-1-ethanol] | < 25% | > 75% |
| CCC[C@H](C)NC[C@H](O)c1cccc(F)c1 [Compound 51, (R)-2-[(S)-1-methylbutylamino]-1-(m-fluorophenyl)-1-ethanol] | < 25% | > 75% |
| CCC[C@@H](C)NC[C@H](O)c1ccc(F)cc1 [Compound 52, (R)-2-[(R)-1-methylbutylamino]-1-(p-fluorophenyl)-1-ethanol] | < 25% | 50 to 75% |
| CCC[C@H](C)NC[C@H](O)c1ccc(F)cc1 [Compound 53, (R)-2-[(S)-1-methylbutylamino]-1-(p-fluorophenyl)-1-ethanol] | < 25% | 50 to 75% |
| CC(C)(C)NC[C@H](O)c1cccc(F)c1 [Compound 54, (R)-2-(tert-butylamino)-1-(m-fluorophenyl)-1-ethanol] | < 25% | > 75% |

| SMILES | Emax at 10 µM [1] | Emax at 10 µM [2] |
| --- | --- | --- |
| CCCCNCC(O)c1cc(F)cc(F)c1 (centres unmarked) [Compound 55, 2-(butylamino)-1-(3,5-difluorophenyl)-1-ethanol] | < 25% | 50 to 75% |
| CCCCNCC(O)c1ccc(F)c(F)c1 (centres unmarked) [Compound 56, 2-(butylamino)-1-(3,4-difluorophenyl)-1-ethanol] | < 25% | 50 to 75% |
| CCC[C@@H]1CC[C@H]([C@H](O)c2cccc(O)c2)N1 [Compound 57, m-{(R)-[(2R,5R)-5-propyl-2-pyrrolidinyl]hydroxymeth-yl}phenol] | 50 to 75% | > 75% |
| CCC[C@@H]1CC[C@H]([C@H](O)c2cccc(F)c2)N1 [Compound 58, (R)-[(2R,5R)-5-propyl-2-pyrrolidinyl](m-fluorophenyl)methanol] | 25 to 50% | > 75% |
| CCC[C@@H]1CCC[C@H]([C@H](O)c2cccc(F)c2)N1 [Compound 59, (R)-[(2R,6R)-6-propyl-2-piperidyl](m-fluorophenyl)methanol] | < 25% | 25 to 50% |
| CCC[C@@H]1CCC[C@H]([C@@H](O)c2cccc(F)c2)N1 [Compound 60, (S)-[(2R,6R)-6-propyl-2-piperidyl](m-fluorophenyl)methanol] | < 25% | 25 to 50% |
| CCCC(C)(C)NC[C@H](O)c1cccc(F)c1 [Compound 61, (R)-2-(1,1-dimethylbutylamino)-1-(m-fluorophenyl)-1-ethanol] | < 25% | > 75% |
| CCCCNCC(O)c1cc[nH]c(=O)c1 (centres unmarked) [Compound 62, 4-[2-(butylamino)-1-hydroyxethyl]-2(1H)-pyridinone] | < 25% | 25 to 50% |
| CCCCNCC(O)c1ccc(=O)[nH]c1 (centres unmarked) [Compound 63, 5-[2-(butylamino)-1-hydroxyethyl]-2(1H)-pyridinone] | < 25% | 25 to 50% |
| CCC[C@H]1CCC[C@H]([C@H](O)c2cccc(O)c2)N1 [Compound 64, (R)-[(2R,6S)-6-propyl-2-piperidyl](m-hydroxyphenyl)methanol] | < 25% | > 75% |
| CCC[C@H]1CCC[C@H]([C@@H](O)c2ccc(F)c(F)c2)N1 [Compound 65, (S)-[(2R,6S)-6-propyl-2-piperidyl](3,4-difluorophenyl)methanol] | < 25% | 25 to 50% |
| CCC[C@H]1CCC[C@H]([C@@H](O)c2cc(F)cc(F)c2)N1 [Compound 66, (S)-[(2R,6S)-6-propyl-2-piperidyl](3,5-difluorophenyl)methanol] | < 25% | 25 to 50% |
| CCC[C@H]1CCC[C@H]([C@H](O)c2ccc(F)c(F)c2)N1 [Compound 67, (R)-[(2R,6S)-6-propyl-2-piperidyl](3,4-difluorophenyl)methanol] | < 25% | 25 to 50% |
| CCC[C@H]1CCC[C@H]([C@H](O)c2cc(F)cc(F)c2)N1 [Compound 68, (R)-[(2R,6S)-6-propyl-2-piperidyl](3,5-difluorophenyl)methanol] | < 25% | 50 to 75% |
| CCC[C@H]1CCC[C@H]([C@H](O)c2cccc(F)c2)N1 [Compound 69, (R)-[(2R,6S)-6-propyl-2-piperidyl](m-fluorophenyl)methanol] | < 25% | 50 to 75% |
| CCC[C@H]1CCC[C@H]([C@@H](O)c2cccc(F)c2)N1 [Compound 70, (S)-[(2R,6S)-6-propyl-2-piperidyl](m-fluorophenyl)methanol] | < 25% | 50 to 75% |
| CCCCNC[C@H](O)c1csc(N)n1 [Compound 71, (S)-1-(2-amino-1,3-thiazol-4-yl)-2-(butylamino)-1-ethanol] | < 25% | 25 to 50% |
| CCCCNC[C@H](O)c1csc(C(F)(F)F)n1 [Compound 72, (S)-2-(butylamino)-1-[2-(trifluoromethyl)-1,3-thiazol-4-yl]-1-ethanol] | < 25% | 25 to 50% |
| CCCCNC[C@H](O)c1ccnc(N)n1 [Compound 73, (S)-1-(2-amino-4-pyrimidinyl)-2-(butylamino)-1-ethanol] | < 25% | 25 to 50% |
| CCCCNC[C@H](O)c1cnc(NC(=O)C(C)C)s1 [Compound 74, N-{5-[(2S)-2-(butylamino)-1-hydroxyethyl]-1,3-thiazol-2-yl}2-methylpropionamide] | < 25% | 25 to 50% |
